Target: T1, Dual specificity protein phosphatase 6 (Rattus norvegicus, UniProt Q64346)
T1 sequence (Q64346 whole entry): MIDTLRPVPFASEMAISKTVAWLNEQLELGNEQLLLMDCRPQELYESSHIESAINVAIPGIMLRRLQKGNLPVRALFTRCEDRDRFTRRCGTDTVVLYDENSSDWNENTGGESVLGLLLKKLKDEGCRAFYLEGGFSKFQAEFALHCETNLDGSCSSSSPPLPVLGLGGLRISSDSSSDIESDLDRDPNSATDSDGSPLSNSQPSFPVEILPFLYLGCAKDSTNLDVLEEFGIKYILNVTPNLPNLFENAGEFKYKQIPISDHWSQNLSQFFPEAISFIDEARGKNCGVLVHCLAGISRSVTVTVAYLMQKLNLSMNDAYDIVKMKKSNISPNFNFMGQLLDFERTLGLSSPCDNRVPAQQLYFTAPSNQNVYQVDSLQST
Assay: MKP-3 phosphatase inhibitors, SAR follow-up, biochemical (AID 1055)
Conditions: pH 7; 23 °C

SMILES: Cc1ccc2c(c1)C1C=CCC1C(C(=O)O)N2 (stereo unspecified) [MLS-0067149.0001]
- IC50: 7.9 µM

— BindingDB's records for doi:10.7270/Q2N87841 (Burnham Center For Chemical Genomics, 2008)
